Experimental data published in patent US7803769B2 (priority 2006, dated 2010).
Entries after “also recorded” stand apart in the source; their conditions may differ.

Key:
[1] = system: CD40L on CD4+ T cells in human whole blood; assay type: cell-based
[2] = system: thapsigargin-induced IL-2 production in human whole blood
[3] = system: thapsigargin-induced IFN-g production in human whole blood; assay type: cell-based
[4] = system: IL-2R on CD4+ T cells in human whole blood; assay type: cell-based
[5] = system: IL-2 production from PMA and αCD3 antibody stimulated human PBMCs; assay type: cell-based
[6] = system: IFNγ production from αCD3 and αCD28 antibody stimulated human PBMCs; assay type: cell-based
[7] = system: IL-2 production from αCD3 and αCD28 antibody stimulated human PBMCs; assay type: cell-based
[8] = rat, in vivo, iv
[9] = system: adoptive transfer EAE model of multiple sclerosis; conditions: rat, in vivo, sc
[10] = system: IFNγ production from PMA and αCD3 antibody stimulated human PBMCs; assay type: cell-based
human Kv1.3 channel = human Kv1.3 channel (Homo sapiens, UniProt P22001); assay type: cell-based
human Kv1.3 channel, sequence (P22001 whole entry): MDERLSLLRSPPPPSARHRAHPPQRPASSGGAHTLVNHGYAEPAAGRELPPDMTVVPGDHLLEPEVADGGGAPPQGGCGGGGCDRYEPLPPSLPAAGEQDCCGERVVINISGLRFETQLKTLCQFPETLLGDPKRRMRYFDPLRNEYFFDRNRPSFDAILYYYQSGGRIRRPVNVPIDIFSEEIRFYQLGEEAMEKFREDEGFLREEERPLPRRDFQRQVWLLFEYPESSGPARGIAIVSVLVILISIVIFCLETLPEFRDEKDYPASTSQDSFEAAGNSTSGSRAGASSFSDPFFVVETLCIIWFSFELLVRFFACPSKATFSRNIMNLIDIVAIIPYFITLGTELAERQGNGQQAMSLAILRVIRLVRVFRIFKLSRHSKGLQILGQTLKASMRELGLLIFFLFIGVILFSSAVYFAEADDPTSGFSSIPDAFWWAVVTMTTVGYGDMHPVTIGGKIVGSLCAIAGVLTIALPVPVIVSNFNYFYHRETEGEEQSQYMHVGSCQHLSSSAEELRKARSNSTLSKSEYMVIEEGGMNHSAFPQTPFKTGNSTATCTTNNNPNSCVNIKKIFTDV

human Kv1.1 = target: T1, human Kv1.1 (Homo sapiens, UniProt Q09470); assay type: cell-based
T1 construct: expressed in transfected cells; host or cells: HEK293
T1 sequence (Q09470 whole entry): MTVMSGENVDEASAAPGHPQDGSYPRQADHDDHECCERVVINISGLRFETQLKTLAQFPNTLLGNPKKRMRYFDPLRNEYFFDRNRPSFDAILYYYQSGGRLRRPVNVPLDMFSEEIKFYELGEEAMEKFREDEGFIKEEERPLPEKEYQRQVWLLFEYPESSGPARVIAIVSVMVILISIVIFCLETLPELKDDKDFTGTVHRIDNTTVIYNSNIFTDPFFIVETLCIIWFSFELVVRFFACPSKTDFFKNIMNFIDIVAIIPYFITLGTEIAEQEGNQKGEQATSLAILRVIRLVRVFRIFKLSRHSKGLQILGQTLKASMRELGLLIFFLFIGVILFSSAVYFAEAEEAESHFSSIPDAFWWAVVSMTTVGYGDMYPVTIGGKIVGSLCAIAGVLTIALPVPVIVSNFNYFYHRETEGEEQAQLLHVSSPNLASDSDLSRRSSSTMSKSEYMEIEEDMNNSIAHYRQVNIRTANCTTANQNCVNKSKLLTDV

[11] = target: HEK 293 cells overexpressing human Kv1.3 (Homo sapiens, UniProt P22001); test: Immunohistochemistry binding to HEK 293 cells overexpressing human Kv1.3; conditions: 5 μg/ml
HEK 293 cells overexpressing human Kv1.3, sequence (P22001 whole entry): as the sequence (P22001 whole entry) above
Method: Immunohistochemistry analysis of Fc-L10-ShK[1-35] binding to HEK 293 cells overexpressing human Kv1.3. HEK 293 cells overexpressing human Kv1.3 (HEK Kv1.3) were obtained from BioFocus plc (Cambridge, UK) and maintained per manufacturer's recommendation. The parental HEK 293 cell line was used as a control. Cells were plated on Poly-D-Lysine 24 well plates (#35-4414; Becton-Dickinson, Bedford, Mass.) and allowed to grow to approximately 70% confluence. HEK KV1.3 were plated at 0.5×10e5 cells/well in 1 ml/well of medium. HEK 293 cells were plated at a density of 1.5×10e5 cells/well in 1 ml/well of medium. Before staining, cells were fixed with formalin (Sigma HT50-1-1 Formalin solution, diluted 1:1 with PBS/0.5% BSA before use) by removing cell growth medium, adding 0.2 ml/well formalin solution and incubating at room temperature for ten minutes. Cells were stained by incubating with 0.2 ml/well of 5 μg/ml Fc-L10-ShK[1-35] in PBS/BSA for 30′ at room temperature. Fc-L10-ShK[1-35] was aspirated and then the cells were washed one time with PBS/0.5% BSA. Detection antibody (Goat F(ab)2 anti-human IgG-phycoerythrin; Southern Biotech Associates, Birmingham, Ala.) was added to the wells at 5 μg/ml in PBS/0.5% BSA and incubated for 30′ at room temperature. Wash cells once with PBS/0.5% BSA and examine using confocal microscopy (LSM 510 Meta Confocal Microscope; Carl Zeiss AG, Germany). […]

[12] = target: fixed HEK 293 cells stably transfected with human Kv1.3 (Homo sapiens, UniProt P22001); test: Whole cell immunoassay (ELISA) on fixed HEK 293 cells overexpressing Kv1.3; assay type: binding
fixed HEK 293 cells stably transfected with human Kv1.3, sequence (P22001 whole entry): as above
Method: Our peptibody reagent can be a useful and convenient tool for monitoring Kv1.3 channel expression in patients and have utility in diagnostic applications. The procedure shown in FIG. 34A and FIG. 34B follows.
FIG. 34A. A whole cell immunoassay was performed to show binding of intact Fc-L10-ShK[1-35] to Kv1.3 transfected HEK 293 cells (BioFocus plc, Cambridge, UK). Parent HEK 293 cells or HEK Kv1.3 cells were plated at 3×10e4 cells/well in poly-D-Lysine coated ninety-six well plates (#35-4461; Becton-Dickinson, Bedford, Mass.). Cells were fixed with formalin (Sigma HT50-1-1 Formalin solution, diluted 1:1 with PBS/0.5% BSA before use) by removing cell growth medium, adding 0.2 ml/well formalin solution and incubating at room temperature for 25 minutes and then washing one time with 100 μl/well of PBS/0.5% BSA. Wells were blocked by addition of 0.3 ml/well of BSA blocker (50-61-00; KPL 10% BSA Diluent/Blocking Solution, diluted 1:1 with PBS; KPL, Gaithersburg, Md.) followed by incubation at room temperature, with shaking, for 3 hr. Plates were washed 2 times with 1×KP Wash Buffer (50-63-00; KPL). […] Absorbance was read at 450 nm on a Molecular Devices SpectroMax 340 (Sunnyvale, Calif.).
FIG. 34B. […] Absorbances were read at 405 nm after stopping reactions by addition of 0.1 ml/well of 1% SDS.

[13] = system: T cell proliferation in human PBMCs; test: T cell proliferation (3H-thymidine incorporation) in anti-CD3/anti-CD28 stimulated human PBMCs; assay type: cell-based; conditions: two normal donors
Text: Inhibition of T cell proliferation following anti-CD3 and anti-CD28 antibody stimulation of PBMCs. PBMC's were previously isolated from normal human donor Leukophoresis packs, purified by density gradient centrifugation (Ficoll Hypaque), cryopreserved in CPZ Cryopreservation Medium Complete (INCELL, MCPZF-100 plus 10% DMSO final). PBMC's were thawed (95% viability), washed, and seeded at 2×10^5 cells per well in culture medium (RPMI medium 1640; GIBCO) supplemented with 10% fetal calf serum, 100 U/ml penicillin, […] streptomycin, 2 mM L-glutamine, 100 μM non-essential amino acids, and 20 μM 2-ME) in 96-well flat-bottom tissue culture plates. Cells were pre-incubated with either anti-human CD32 (FcyRII) blocking antibody (per manufacturers instructions EASY SEP Human Biotin Selection Kit #18553, StemCell Technologies Vancouver, BC) or Fc-L10-ShK (100 nM-0.001 nM final) for 45 min. Fc-L10-ShK (100 nM-0.001 nM final) was then added to the cells containing anti-human CD32 blocking antibody while medium was added to the cells containing Fc-L10-ShK. Both sets were incubated for an additional 45 min before stimulating for 48 hr with aCD3/aCD28 (0.2 ng/ml and 100 ng/ml, respectively). Final assay volume was 200 ul. […] Cells were then harvested onto glass fiber filters and radioactivity was measured in a B-scintillation counter.

Molecule | thapsigargin-induced upregulation of CD40L on T cells (in words) [1] | thapsigargin-induced IFN-g production in human whole blood (in words) [3] | thapsigargin-induced upregulation of IL-2R on T cells (in words) [4] | inhibition of IL-2 production (in words) [5] | inhibition of IFNg production (in words) [6] | inhibition of IL-2 production (in words) [7] | inhibition of IFNγ production (in words) [10] | block of human Kv1.3 current (in words) (human Kv1.3 channel) | also measured
IbTx: BKCa channel inhibitor iberiotoxin, purchased from Bachem (QFTDVDCSVSKECWSVCKDLFGVDRGKCMGKKCRCYQ; Definition of Artificial Sequence: Synthetic peptide) [reference compound] | no significant activity | no significant activity | no significant activity | – | – | – | – | – | thapsigargin-induced IL-2 production in human whole blood (in words) [2]: no significant activity
CC[C@H](C)[C@@H]1NC(=O)[C@@H](NC(=O)[C@H](CO)NC(=O)[C@@H](N)CCCNC(=N)N)CSSC[C@@H](C(=O)O)NC(=O)[C@H]([C@@H](C)O)NC(=O)CNC(=O)[C@@H]2CSSC[C@@H]3NC(=O)[C@H](CCC(N)=O)NC(=O)[C@H](Cc4ccccc4)NC(=O)[C@H](C)NC(=O)[C@H]([C@@H](C)O)NC(=O)[C@H](CSSC[C@H](NC(=O)[C@H](Cc4ccccc4)NC(=O)[C@H](CO)NC(=O)[C@H](CC(C)C)NC(=O)[C@H](CCCNC(=N)N)NC(=O)[C@H](Cc4ccc(O)cc4)NC(=O)[C@H](CCCCN)NC(=O)[C@H](CCSC)NC(=O)[C@H](CO)NC(=O)[C@H](Cc4cnc[nH]4)NC(=O)[C@H](CCCCN)NC3=O)C(=O)N[C@@H](CCCNC(=N)N)C(=O)N[C@@H](CCCCN)C(=O)N[C@@H]([C@@H](C)O)C(=O)N2)NC(=O)[C@H](CCCNC(=N)N)NC(=O)[C@H](CO)NC(=O)[C@H](CCCCN)NC(=O)[C@@H]2CCCN2C(=O)[C@H]([C@@H](C)CC)NC(=O)[C@H]([C@@H](C)O)NC(=O)[C@H](CC(=O)O)NC1=O [ShK, reference compound] | suppressed | suppressed | suppressed | only a partial inhibition | only partial inhibition | only partial inhibition | only a partial inhibition | – | time of significant suppression of Kv1.3 current (<70 POC) by 5% serum Test solutions [8]: ≤ 1 h; average body weight lost [9]: 30 g; disease severity and survival (in words) [9]: developed severe disease and died; onset of disease [9]: 4 days
Fc-L10-ShK[2-35]: human IgG1 Fc fused via 10 amino acid linker to ShK[2-35] | blocked | suppressed; also recorded: blocked | blocked | – | – | – | – | potently blocks human Kv1.3 current | –
Fc-L10-OSK1[E16K,K20D]: Fc-L10-OSK1 with E16K and K20D substitutions | – | – | – | – | – | – | – | – | blocking activity against Kv1.1 (in words) (human Kv1.1): removed the blocking activity against Kv1.1; difference in Kv1.3 potency compared to Fc-L10-OSK1 (human Kv1.3 channel): 1.3 fold; fold less potent than the synthetic OSK1 toxin peptide (Kv1.3) (human Kv1.3 channel): approximately 6 fold
Fc-L10-ShK[1-35]: Fc region of human IgG1 fused in-frame to L10 linker and a monomer of ShK[1-35] | suppressed | – | suppressed | complete inhibition of the response | nearly complete inhibition | nearly complete inhibition | complete inhibition of the response | potently blocked human Kv1.3 | binding to Kv1.3 overexpressing HEK 293 cells (staining) [11]: binds to Kv1.3 overexpressing HEK 293 cells but shows little binding to untransfected cells; binding to fixed cells that overexpress Kv1.3 (ELISA) [12]: dose-dependent increase in the peptibody binding to fixed cells that overexpress Kv1.3; inhibition of T cell proliferation (in words) [13]: potently inhibits proliferation of T cells in a dose-dependent manner
L2-6H-L3-CH2-L10-OsK1 (1-38) (protein) MGGHHHHHHGGGPSVFLFPPKPKDTLMISRTPEVTCVVVDVSHEDPEVKFNWYVDGVEVHNAKTKPREEQYNSTYRVVSVLTVLHQDWLNGKEYKCKVSNKALPAPIEKTISGGGGSGGGGSGVIINVKCKISRQCLEPCKKAGMRFGKCMNGKCHCTPK | – | – | – | – | – | – | – | – | IC50 ([2]; read-out: WB/IL-2 (IC50)): 38.5 nM; IC50 ([3]; read-out: WB/IFNg (IC50)): 55.2 nM
